Laboratory results reported in patent US7781409B2, “Composition for external use” (Suntory Holdings Limited, priority 2003, dated 2010).
Like-named read-outs stand apart in the source and are kept apart here.

Legend:
guinea pig skin = settings: shaved back, external application, Fragrance Journal 1997; cited from earlier work
[1] = rat, J.Pharmacobio-Dyn., 13, 688, 1990; cited from earlier work
human skin = settings: cream containing the compound applied, Fragrance Journal 1997; cited from earlier work
[2] = Pharmacokinetics at oral ingestion by a rat: intact form in blood; format: in vivo
[3] = test system: normal human dermal fibroblasts (NHDF); test: Collagen synthesis of normal human dermal fibroblasts (3H-proline incorporation, collagenase-sensitive); format: cell-based; settings: compared with 2-O-(α-D-glucopyranosyl)ascorbic acid or ascorbic acid; FIG. 3
Description: Normal human dermal fibroblasts NHDF are seeded in a dish having a diameter of 100 millimeter at 370,000 cells. […] After additional 1 hour, 0.12 mL (120 μCi) of L-(2,3-^3H) proline is added, followed by culturing for 48 hours. After culturing, the medium is removed, and a cell sheet is rinsed with PBS four times. Then, cells are peeled with trypsin, cells are lysed with an alkali, and neutralized to obtain an intracellular protein. The protein is subjected to collagen degradation with collagenase of Clostridium to obtain a protein fraction, and radioactivity of the fraction is measured with a liquid scintillation counter using […]. Separately, radioactivity of an intracellular protein fraction which has not been treated with collagenase is similarly measured with a liquid scintillation counter. A difference between respective radioactivities obtained is adopted as collagen synthesis activity.

[4] = test system: human skin keratinocytes HaCaT; test: Concentration of intracellular ascorbic acid in human skin keratinocytes; format: cell-based; settings: compared with 2-O-(α-D-glucopyranosyl)ascorbic acid and ascorbic acid; FIG. 2
Description: At 3 to 24 hours after addition, a medium is removed, rinsed twice with ice-cooled PBS, and a cell sheet is peeled with trypsin to make single cell state. This is suspended in PBS containing 50 μM dithiothreitol (DTT), and rinsed three times by centrifugation. The cell suspension is disrupted with a potter-type teflon (registered trademark) homogenizer, and then frozen and thawed twice. […] SHODEX® ODSpak (manufactured by SHOWA DENKO K.K., 4.6×150 mm) , mobile phase: 0.1 M KH2PO4-H3PO4 (pH 2.35)-0.1 mM EDTA-2Na, flow rate: 1.5 mL/min).

[5] = test system: keratinocytes (HaCaT) derived from human skin epidermis; test: Protective effect on cell death of keratinocytes (HaCaT) by UVB irradiation (WST-1 cell survival rate); format: cell-based; settings: same concentration, compared with ascorbic acid or 2-O-(α-D-glucopyranosyl)ascorbic acid; FIG. 1
Description: Human skin keratinocytes HaCaT (cell line gifted by Dr. Fusenig of Heidelberg University) was seeded to 10% bovine fetal serum (FBS)-containing Dulbecco modified Eagle medium (DMEM) at 10,000 cells/well in a 24-well plate, and after 18 hours, 35 millijoule/square centimeter (mJ/cm^2) of UBV (maximum wavelength 312 nm) was irradiated. Two hours before the irradiation, 20 to 100 μM of 2-O-(β-D-glucopyranosyl)ascorbic acid was added, and such ascorbic acid was removed immediately before the irradiation and then rinsed. Irradiation was performed in PBS in the absence of a drug, and after irradiation, culturing was continued in a FBS 10%-containing DMEM medium, and 24 hours after irradiation, a cell survival rate was investigated by a method for measuring mitochondrion dehydrogenase activity with the use of 2-(4-iodophenyl)-3-(4-nitrophenyl)-5-(2,4-disulfophenyl)-2H-tetrazolium monosodium salt (WST-1). Similarly, as Comparative Example, 2-O-(α-D-glucopyranosyl) ascorbic acid and ascorbic acid were studied, and the results are also shown in FIG. 1.

[6] = test system: human isolated skin piece; settings: female, 5 h, 100 mM, pH 7.25
burn patient = settings: applied, Japanese Cosmetic Science Society 1998; cited from earlier work
pig skin = settings: 10% aqueous solution, pre-administration for 3 days to one week, Br. J. Dermatol. 1992; cited from earlier work

O=C1O[C@H]([C@@H](O)CO)C(O)=C1O[C@H]1O[C@H](CO)[C@@H](O)[C@H](O)[C@H]1O [2-O-(α-D-glucopyranosyl)ascorbic acid]
Inducement of skin inflammation due to UVB irradiation (guinea pig skin): suppressed | Intact form in blood after oral ingestion [1]: not detected as an intact form in blood | Pigmentation due to ultraviolet-ray irradiation (human skin): suppressed

O=C1O[C@H]([C@@H](O)CO)C(O)=C1O[C@@H]1O[C@H](CO)[C@@H](O)[C@H](O)[C@H]1O [AβG, 2-O-(β-D-glucopyranosyl)ascorbic acid]
Intact form in blood after oral ingestion [2]: detected in blood | Collagen synthesis by normal human dermal fibroblasts (NHDF) [3]: has higher activity | Concentration of intracellular ascorbic acid in human skin keratinocytes [4]: maintained at a highest concentration for a longest term | Suppression of cell death of keratinocytes (HaCaT) due to UVB irradiation [5]: clearly suppressed more strongly cell death | Ratio (%) of reduced form of vitamin C occupied in total vitamin C in skin, Dermis [6]: 25% | Ratio (%) of reduced form of vitamin C occupied in total vitamin C in skin, Epidermis [6]: 67% | Total vitamin C in skin, Dermis [6]: 3 nmol/g tissue | Total vitamin C in skin, Epidermis [6]: 15 nmol/g tissue | Uptake amount of AβG into skin piece, Dermis [6]: 500 | Uptake amount of AβG into skin piece, Epidermis [6]: 3,400

O=C1O[C@H]([C@@H](O)CO)C(O)=C1OP(=O)(O)O [ascorbic acid 2-phosphate]
Cure of burn (burn patient): cured without scar

O=C1O[C@H]([C@@H](O)CO)C(O)=C1O [ascorbic acid]
Inducement of skin inflammation due to UVB irradiation (guinea pig skin): suppressed | Ultraviolet-ray disorder (pig skin): ultraviolet-ray disorder can be alleviated
